Measured values from PubChem BioAssay (NCI).
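Each compound was tested at five concentrations against cells in 96-well plates for 48 hours. At the TGI there is no net growth.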

Legend:
Assay in all cases: NCI-60 cell line screen, 48 h
[1] = test system: 786-0 renal
[2] = test system: A498 renal
[3] = test system: A549 NSCLC
[4] = test system: ACHN renal
[5] = test system: BT-549 breast
[6] = test system: CAKI-1 renal
[7] = test system: CCRF-CEM leukemia
[8] = test system: COLO 205 colon
[9] = test system: DU-145 prostate
[10] = test system: EKVX NSCLC
[11] = test system: HCC-2998 colon
[12] = test system: HCT-116 colon
[13] = test system: HCT-15 colon
[14] = test system: HL-60(TB) leukemia
[15] = test system: HOP-92 NSCLC
[16] = test system: HS 578T breast
[17] = test system: HT29 colon
[18] = test system: IGROV1 ovarian
[19] = test system: K-562 leukemia
[20] = test system: KM12 colon
[21] = test system: LOX IMVI melanoma
[22] = test system: M14 melanoma
[23] = test system: MALME-3M melanoma
[24] = test system: MCF7 breast
[25] = test system: MDA-MB-231 breast
[26] = test system: MDA-MB-435
[27] = test system: MDA-N
[28] = test system: MOLT-4 leukemia
[29] = test system: NCI-H226 lung
[30] = test system: NCI-H23 lung
[31] = test system: NCI-H460 lung
[32] = test system: NCI-H522 lung
[33] = test system: NCI/ADR-RES ovarian
[34] = test system: OVCAR-3 ovarian
[35] = test system: OVCAR-4 ovarian
[36] = test system: OVCAR-5 ovarian
[37] = test system: OVCAR-8 ovarian
[38] = test system: PC-3 prostate
[39] = test system: RPMI-8226 leukemia
[40] = test system: RXF 393 renal
[41] = test system: SF-268 CNS
[42] = test system: SF-295 CNS
[43] = test system: SF-539 CNS
[44] = test system: SK-MEL-2 melanoma
[45] = test system: SK-MEL-28 melanoma
[46] = test system: SK-MEL-5 melanoma
[47] = test system: SK-OV-3 ovarian
[48] = test system: SN12C renal
[49] = test system: SNB-19 CNS
[50] = test system: SNB-75 CNS
[51] = test system: SR leukemia
[52] = test system: SW-620 colon
[53] = test system: T-47D breast
[54] = test system: U251 CNS
[55] = test system: UACC-257 melanoma
[56] = test system: UACC-62 melanoma
[57] = test system: UO-31 renal
[58] = test system: HOP-62 NSCLC
[59] = test system: TK-10 renal

## O=C(Nc1cccc(NC(=O)C(=O)C2CCC3=C(Sc4ccccc4N3)C2=O)n1)C(=O)C1CCC2=C(Sc3ccccc3N2)C1=O (stereo not given)
[1]
  TGI: > 100 µM
[2]
  TGI: > 100 µM
[3]
  TGI: > 100 µM
[4]
  TGI: > 100 µM
[5]
  TGI: > 100 µM
[6]
  TGI: > 100 µM
[7]
  TGI: > 100 µM
[8]
  TGI: > 100 µM
[9]
  TGI: > 100 µM
[10]
  TGI: > 100 µM
[11]
  TGI: > 100 µM
[12]
  TGI: > 100 µM
[13]
  TGI: > 100 µM
[14]
  TGI: > 100 µM
[15]
  TGI: > 100 µM
[16]
  TGI: > 100 µM
[17]
  TGI: > 100 µM
[18]
  TGI: > 100 µM
[19]
  TGI: > 100 µM
[20]
  TGI: > 100 µM
[21]
  TGI: > 100 µM
[22]
  TGI: > 100 µM
[23]
  TGI: > 100 µM
[24]
  TGI: > 100 µM
[25]
  TGI: > 100 µM
[26]
  TGI: > 100 µM
[27]
  TGI: > 100 µM
[28]
  TGI: > 100 µM
[29]
  TGI: > 100 µM
[30]
  TGI: > 100 µM
[31]
  TGI: > 100 µM
[32]
  TGI: > 100 µM
[33]
  TGI: > 100 µM
[34]
  TGI: > 100 µM
[35]
  TGI: 71.7 µM
[36]
  TGI: > 100 µM
[37]
  TGI: > 100 µM
[38]
  TGI: > 100 µM
[39]
  TGI: > 100 µM
[40]
  TGI: > 100 µM
[41]
  TGI: > 100 µM
[42]
  TGI: > 100 µM
[43]
  TGI: 55.1 µM
[44]
  TGI: > 100 µM
[45]
  TGI: > 100 µM
[46]
  TGI: > 100 µM
[47]
  TGI: > 100 µM
[48]
  TGI: > 100 µM
[49]
  TGI: > 100 µM
[50]
  TGI: 70.2 µM
[51]
  TGI: > 100 µM
[52]
  TGI: > 100 µM
[53]
  TGI: > 100 µM
[54]
  TGI: > 100 µM
[55]
  TGI: > 100 µM
[56]
  TGI: > 100 µM
[57]
  TGI: > 100 µM

## Cc1cc(S(=O)(=O)NC(=C(C#N)C#N)[n+]2ccc(N(C)C)cc2)c([S-])cc1Cl
[1]
  TGI: > 100 µM
[2]
  TGI: > 100 µM
[3]
  TGI: > 100 µM
[4]
  TGI: > 100 µM
[5]
  TGI: > 100 µM
[6]
  TGI: > 100 µM
[7]
  TGI: > 100 µM
[8]
  TGI: > 100 µM
[9]
  TGI: > 100 µM
[10]
  TGI: > 100 µM
[11]
  TGI: > 100 µM
[12]
  TGI: > 100 µM
[13]
  TGI: > 100 µM
[14]
  TGI: > 100 µM
[58]
  TGI: > 100 µM
[15]
  TGI: > 100 µM
[16]
  TGI: > 100 µM
[17]
  TGI: > 100 µM
[18]
  TGI: > 100 µM
[19]
  TGI: > 100 µM
[20]
  TGI: > 100 µM
[22]
  TGI: > 100 µM
[23]
  TGI: > 100 µM
[24]
  TGI: > 100 µM
[25]
  TGI: > 100 µM
[26]
  TGI: > 100 µM
[27]
  TGI: > 100 µM
[28]
  TGI: > 100 µM
[29]
  TGI: > 100 µM
[30]
  TGI: > 100 µM
[31]
  TGI: > 100 µM
[32]
  TGI: > 100 µM
[33]
  TGI: > 100 µM
[34]
  TGI: > 100 µM
[35]
  TGI: > 100 µM
[36]
  TGI: > 100 µM
[37]
  TGI: > 100 µM
[38]
  TGI: > 100 µM
[39]
  TGI: > 100 µM
[40]
  TGI: > 100 µM
[41]
  TGI: > 100 µM
[42]
  TGI: > 100 µM
[43]
  TGI: > 100 µM
[44]
  TGI: > 100 µM
[45]
  TGI: > 100 µM
[46]
  TGI: > 100 µM
[47]
  TGI: > 100 µM
[48]
  TGI: > 100 µM
[49]
  TGI: > 100 µM
[51]
  TGI: > 100 µM
[53]
  TGI: > 100 µM
[59]
  TGI: > 100 µM
[54]
  TGI: > 100 µM
[55]
  TGI: > 100 µM
[56]
  TGI: > 100 µM
[57]
  TGI: > 100 µM

## O=C(NCCc1ccccc1)[C@H]1CCCC[C@@H]1CCO
[1]
  TGI: > 100 µM
[2]
  TGI: > 100 µM
[3]
  TGI: > 100 µM
[4]
  TGI: > 100 µM
[5]
  TGI: > 100 µM
[6]
  TGI: > 100 µM
[7]
  TGI: > 100 µM
[8]
  TGI: > 100 µM
[9]
  TGI: > 100 µM
[10]
  TGI: > 100 µM
[11]
  TGI: > 100 µM
[12]
  TGI: > 100 µM
[13]
  TGI: > 100 µM
[14]
  TGI: > 100 µM
[58]
  TGI: > 100 µM
[15]
  TGI: > 100 µM
[16]
  TGI: > 100 µM
[17]
  TGI: > 100 µM
[18]
  TGI: > 100 µM
[19]
  TGI: > 100 µM
[20]
  TGI: > 100 µM
[21]
  TGI: > 100 µM
[22]
  TGI: > 100 µM
[24]
  TGI: > 100 µM
[25]
  TGI: > 100 µM
[26]
  TGI: > 100 µM
[27]
  TGI: > 100 µM
[28]
  TGI: > 100 µM
[29]
  TGI: > 100 µM
[30]
  TGI: > 100 µM
[31]
  TGI: > 100 µM
[32]
  TGI: > 100 µM
[33]
  TGI: > 100 µM
[34]
  TGI: > 100 µM
[35]
  TGI: > 100 µM
[36]
  TGI: > 100 µM
[37]
  TGI: > 100 µM
[38]
  TGI: > 100 µM
[39]
  TGI: > 100 µM
[40]
  TGI: > 100 µM
[41]
  TGI: > 100 µM
[42]
  TGI: > 100 µM
[43]
  TGI: > 100 µM
[44]
  TGI: > 100 µM
[45]
  TGI: > 100 µM
[46]
  TGI: > 100 µM
[47]
  TGI: > 100 µM
[48]
  TGI: > 100 µM
[50]
  TGI: > 100 µM
[51]
  TGI: > 100 µM
[52]
  TGI: > 100 µM
[53]
  TGI: > 100 µM
[59]
  TGI: > 100 µM
[54]
  TGI: > 100 µM
[55]
  TGI: > 100 µM
[56]
  TGI: > 100 µM
[57]
  TGI: > 100 µM
